Holding throughout (type): biochemical
For test [1], the target named is T1, PIP4K2A (Homo sapiens, UniProt P48426).
T1 sequence (P48426 1-406): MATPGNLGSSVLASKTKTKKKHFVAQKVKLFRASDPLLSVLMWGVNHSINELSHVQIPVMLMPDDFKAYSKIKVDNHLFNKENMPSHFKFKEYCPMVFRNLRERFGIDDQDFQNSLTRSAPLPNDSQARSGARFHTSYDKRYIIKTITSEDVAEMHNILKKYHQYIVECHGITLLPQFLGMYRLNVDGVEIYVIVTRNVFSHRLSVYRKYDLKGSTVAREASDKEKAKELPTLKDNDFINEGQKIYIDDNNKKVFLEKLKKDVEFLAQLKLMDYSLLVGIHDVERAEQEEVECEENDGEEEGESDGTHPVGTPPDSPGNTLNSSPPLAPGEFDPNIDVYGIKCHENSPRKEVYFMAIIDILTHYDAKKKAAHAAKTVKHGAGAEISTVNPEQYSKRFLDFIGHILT
Briefly: ADP-glo kinase assay PIP4K 2A (Table 3). Further details: made in house; host or cells: E. coli. To be noted: compounds listed under IC50 bins. Summed up:
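Full-length PIP4K2A (4 nM in the mix) with 100 μM PI(5)P diC8 pre-incubated 15 min with compound in MOPS pH 7.2, 25 mM MgCl2; ATP added (60 μM solution), 1 h at RT. ADP formed read by ADP-Glo luminescence; 10-point curves versus DMSO controls fitted to IC50.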

The target of test [2] is T1, PIP4K2A. As to the kind of experiment: Kinase Assay PIP4K2 A (Table 2). As to conditions: compounds listed under IC50 bins. More on the design: 4 nM PIP4K2A (full length protein, SignalChem); purchased SignalChem. In outline: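 Full-length PIP4K2A (4 nM in the added mix, with 100 μM PI(5)P diC8) pre-incubated 15 min at RT with compounds (10-point, 3-fold series) in 20 mM MOPS pH 7.2, 25 mM MgCl2, 0.005% Tween 20. ATP added from a 60 μM solution, 1 h at RT; ADP-Glo luminescence, IC50 fitted from % inhibition versus DMSO.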

The target in another test is T2, PIP4K2B (Homo sapiens, UniProt P78356).
T2 construct: made in house; host or cells: E. coli
T2 sequence (P78356 1-416): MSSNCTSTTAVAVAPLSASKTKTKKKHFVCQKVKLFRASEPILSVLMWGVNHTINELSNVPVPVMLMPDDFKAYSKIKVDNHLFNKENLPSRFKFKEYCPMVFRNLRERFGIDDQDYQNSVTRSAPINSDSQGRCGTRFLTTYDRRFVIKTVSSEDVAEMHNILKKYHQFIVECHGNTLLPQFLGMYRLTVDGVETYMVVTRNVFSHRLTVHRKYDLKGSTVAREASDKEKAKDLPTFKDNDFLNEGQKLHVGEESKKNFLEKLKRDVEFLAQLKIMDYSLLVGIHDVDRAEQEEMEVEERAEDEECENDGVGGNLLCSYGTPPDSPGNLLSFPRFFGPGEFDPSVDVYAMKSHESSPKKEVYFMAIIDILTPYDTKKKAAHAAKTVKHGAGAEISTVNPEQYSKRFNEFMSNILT
Briefly: Trans-FI P kinase assay PIP4K2B (Table 4). As to conditions: compounds listed under IC50 bins; read-out: Trans-FI P kinase assays: PIP4K2B IC50. Summed up: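 Transcreener FI detection (Ex 584/Em 623) of GDP, converted via calibration curve, gives IC50 from residual activity versus log concentration (highest 4.8 μM). Reaction: 80 μM PI5P plus DOPE carrier, 100 μM GTP, 5 nM GST-tagged enzyme, pH 7.3 HEPES with MgCl2 and 5% DMSO, 2 h after 1 h enzyme-compound preincubation at 27° C.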

As to `CC(C)S(=O)(=O)N1CCOc2ncc(Nc3ccc(-c4ccc(N5CCCC5=O)cc4)cn3)cc21` [Example 153, 1-(4-(6-((1-(isopropylsulfonyl)-2,3-dihydro-1H-pyrido[2,3-b][1,4]oxazin-7-yl)amino)pyridin-3-yl)phenyl)pyrrolidin-2-one], the IC50 – broadly, the concentration that gives 50% inhibition – at PIP4K2A [1] lay in the range of 100 to 1000 nM; against PIP4K2A [2], 10 to 100 nM; on PIP4K2B, 10 to 100 nM.

As for `CN(Cc1cncs1)C(=O)c1ccc(-c2ccc(Nc3cccnc3)nc2)cc1` [Example 71, N-methyl-4-(6-(pyridin-3-ylamino)pyridin-3-yl)-N-(thiazol-5-ylmethyl)benzamide], the IC50 at PIP4K2A [1], at PIP4K2A [2] and on PIP4K2B was above 1000 nM each time.

In the case of `CN(C)C(=O)c1ccc(-c2ccc(Nc3cncc(NC(=O)c4ccc5cc[nH]c5c4)c3)nc2)cc1` [Example 135, N-(5-((5-(4-(dimethylcarbamoyl)phenyl)pyridin-2-yl)amino)pyridin-3-yl)-1H-indole-6-carboxamide], the IC50 on PIP4K2A [1], on PIP4K2A [2] and at PIP4K2B was 10 to 100 nM in each case.

Take `CN(C)C/C=C/C(=O)Nc1cccc(CCC(=O)Nc2cncc(Nc3ccc(-c4ccc(C(=O)N(C)C)cc4)cn3)c2)c1` [Example 103, (E)-4-(6-((5-(3-(3-(4-(dimethylamino)but-2-enamido)phenyl)propanamido)pyridin-3-yl)amino)pyridin-3-yl)-N,N-dimethylbenzamide]: the IC50 against PIP4K2A [1] lay in the range of 10 to 100 nM; against PIP4K2A [2] it was 1 to 10 nM; on PIP4K2B it was 10 to 100 nM.

Consider `CN(C)C(=O)c1ccc(-c2ccc(Nc3cncc(NC(=O)CC#N)c3)nc2)cc1` [Example 122, 4-(6-((5-(2-cyanoacetamido)pyridin-3-yl)amino)pyridin-3-yl)-N,N-dimethylbenzamide], for which the values for the IC50 against PIP4K2A [1], against PIP4K2A [2] and at PIP4K2B were 100 to 1000 nM, 10 to 100 nM and 10 to 100 nM, respectively.

As for `CN(C)C(=O)c1ccc(-c2ccc(Nc3cncc(N4CCC(Cc5cccc(N)c5)C4=O)c3)nc2)cc1` (stereo not drawn) [Example 134, 4-(6-((5-(3-(3-aminobenzyl)-2-oxopyrrolidin-1-yl)pyridin-3-yl)amino)pyridin-3-yl)-N,N-dimethylbenzamide], the IC50 against PIP4K2A [1], at PIP4K2A [2] and at PIP4K2B was 10 to 100 nM throughout.

As for `CN(C)C(=O)c1ccc(-c2ccc(Nc3cncc(NC(=O)Cc4ccccc4)c3)nc2)cc1` [Example 123, N,N-dimethyl-4-(6-((5-(2-phenylacetamido)pyridin-3-yl)amino)pyridin-3-yl)benzamide], the values for the IC50 on PIP4K2A [1], on PIP4K2A [2] and on PIP4K2B were 100 to 1000 nM, 10 to 100 nM and 10 to 100 nM, respectively.

Regarding `COC(=O)N1CCOc2ncc(Nc3ccc(-c4ccc(N5CCCC5=O)cc4)cn3)cc21` [Example 151, methyl 7-((5-(4-(2-oxopyrrolidin-1-yl)phenyl)pyridin-2-yl)amino)-2,3-dihydro-1H-pyrido[2,3-b][1,4]oxazine-1-carboxylate], the IC50 lay within 1 to 10 nM on PIP4K2A [1], 1 to 10 nM against PIP4K2A [2] and 10 to 100 nM at PIP4K2B.

In the case of `CN(C)C/C=C/C(=O)Nc1cccc(C(=O)Nc2cncc(Nc3ccc(-c4ccc(C(=O)N(C)C)cc4)cn3)c2)c1` [Example 100, (E)-4-(6-((5-(3-(4-(dimethylamino)but-2-enamido)benzamido)pyridin-3-yl)amino)pyridin-3-yl)-N,N-dimethylbenzamide], the IC50 on PIP4K2A [1] is 10 to 100 nM; against PIP4K2A [2] it was 1 to 10 nM; at PIP4K2B it was 10 to 100 nM.

With `O=C(Nc1cncc(Nc2ccc(-c3ccc(N4CCCC4=O)cc3)cn2)c1)c1ccc(=O)[nH]c1` [Example 240, 6-oxo-N-(5-((5-(4-(2-oxopyrrolidin-1-yl)phenyl)pyridin-2-yl)amino)pyridin-3-yl)-1,6-dihydropyridine-3-carboxamide], the IC50 on PIP4K2A [1] fell in the range of 100 to 1000 nM; against PIP4K2A [2] it was 10 to 100 nM; on PIP4K2B, 10 to 100 nM.

Turning to `CCO[C@H]1C[C@@H]1C(=O)Nc1cncc(Nc2ccc(-c3ccc(N4CCCC4=O)cc3)cn2)c1` [Example 252, (1S,2S)-2-ethoxy-N-(5-((5-(4-(2-oxopyrrolidin-1-yl)phenyl)pyridin-2-yl)amino)pyridin-3-yl)cyclopropane-1-carboxamide], the IC50 at PIP4K2A [1] lay in the range of 10 to 100 nM; against PIP4K2A [2], 1 to 10 nM; on PIP4K2B, 10 to 100 nM.

For the compound `CN(C)C/C=C/C(=O)Nc1cccc(CCC(=O)Nc2ccc(CN3CCN(c4cncc(Nc5ccc(-c6ccc(C(=O)N(C)C)cc6)cn5)c4)C3=O)cc2)c1` [Example 231, (E)-4-(6-((5-(3-(4-(3-(3-(4-(dimethylamino)-but-2-enamido)phenyl)propanamido)benzyl)-2-oxoimidazolidin-1-yl)pyridin-3-yl)amino)pyridin-3-yl)-N,N-dimethylbenzamide], the IC50 is 1 to 10 nM against PIP4K2A [1], 1 to 10 nM at PIP4K2A [2] and 10 to 100 nM at PIP4K2B.

Regarding `CN(C)C(=O)c1ccc(-c2ccc(Nc3cncc(N4CCN(Cc5ccc(NC(=O)CN)cc5)C4=O)c3)nc2)cc1` [Example 228, 4-(6-((5-(3-(4-(2-aminoacetamido)benzyl)-2-oxoimidazolidin-1-yl)pyridin-3-yl)amino)pyridin-3-yl)-N,N-dimethylbenzamide], the IC50 on PIP4K2A [1], at PIP4K2A [2] and on PIP4K2B was above 1000 nM each time.

Turning to `COCc1nc(Nc2cnc3c(c2)N2C(=O)CC[C@H]2CO3)ncc1-c1ccc(N2CCCC2=O)cc1` [Example 197, (S)-2-((4-(methoxymethyl)-5-(4-(2-oxopyrrolidin-1-yl)phenyl)pyrimidin-2-yl)amino)-6,6a,7,8-tetrahydro-9H-pyrido[2,3-b]pyrrolo[1,2-d][1,4]oxazin-9-one], the IC50 at PIP4K2A [1], on PIP4K2A [2] and at PIP4K2B was 1 to 10 nM each time.

With `CN(C)C/C=C/C(=O)Nc1cccc(CCC(=O)Nc2cccc(CN3CCN(c4cncc(Nc5ccc(-c6ccc(C(=O)N(C)C)cc6)cn5)c4)C3=O)c2)c1` [Example 225, (E)-4-(6-((5-(3-(3-(3-(3-(4-(dimethylamino)but-2-enamido)phenyl)propanamido)benzyl)-2-oxoimidazolidin-1-yl)pyridin-3-yl)amino)pyridin-3-yl)-N,N-dimethylbenzamide], the IC50 was in the range of 10 to 100 nM against PIP4K2A [1], 1 to 10 nM on PIP4K2A [2] and 10 to 100 nM at PIP4K2B.

`CN(C)C/C=C/C(=O)Nc1ccc(C(=O)Nc2cncc(Nc3ccc(-c4ccc(C(=O)N(C)C)cc4)cn3)c2)cc1` [Example 117, (E)-4-(6-((5-(4-(4-(dimethylamino)but-2-enamido)benzamido)pyridin-3-yl)amino)pyridin-3-yl)-N,N-dimethylbenzamide]: the IC50 on PIP4K2A [1] fell in the range of 10 to 100 nM; against PIP4K2A [2] it was 1 to 10 nM; at PIP4K2B, 10 to 100 nM.

As for `COc1ncc(Nc2ccc(-c3ccc(N4CCCC4=O)cc3)cn2)cc1N(C)S(C)(=O)=O` [Example 161, N-(2-methoxy-5-((5-(4-(2-oxopyrrolidin-1-yl)phenyl)pyridin-2-yl)amino)pyridin-3-yl)-N-methylmethanesulfonamide], the IC50 on PIP4K2A [1] is 100 to 1000 nM; against PIP4K2A [2] it was 100 to 1000 nM; on PIP4K2B, 10 to 100 nM.

On to `CNC(=O)Nc1cncc(Nc2ccc(-c3ccc(C(=O)N(C)C)cc3)cn2)c1` [Example 124, N,N-dimethyl-4-(6-((5-(3-methylureido)pyridin-3-yl)amino)pyridin-3-yl)benzamide], for which the IC50 at PIP4K2A [1], against PIP4K2A [2] and on PIP4K2B was 10 to 100 nM each time.

Turning to `O=C1CCCN1c1ccc(-c2ccc(Nc3cnc4c(c3)N3C(=O)C(O)C[C@H]3CO4)nc2)cc1` (stereo partly drawn) [Example 268, (6aS)-8-hydroxy-2-((5-(4-(2-oxopyrrolidin-1-yl)phenyl)pyridin-2-yl)amino)-6,6a,7,8-tetrahydro-9H-pyrido[2,3-b]pyrrolo[1,2-d][1,4]oxazin-9-one], the IC50 lay within 10 to 100 nM against PIP4K2A [1], 1 to 10 nM against PIP4K2A [2] and 10 to 100 nM at PIP4K2B.

The values above are taken from patent US11667651B2, “Aminopyridine derivatives as phosphatidylinositol phosphate kinase inhibitors” (HiberCell, Inc., priority 2017, dated 2023).
